Results from US20120149902A1, “PYRROLO[2,3-D]PYRIMIDINE DERIVATIVE” (UBE INDUSTRIES, LTD., priority 2009, published 2012).

Tests used:
[1] = biological target: T1, purified human recombinant HER2 kinase (Lys676-Val1255, GST fusion) (Homo sapiens, UniProt P04626); assay: HER2 kinase enzyme inhibitory activity (HTRF); format: biochemical; conditions: 200 μM ATP, FLT3 analogous peptide substrate, 60 minutes at room temperature
T1 construct: human recombinant HER2 kinase (Lys676-Val1255, GST fusion); GST
T1 sequence (P04626 676-1255): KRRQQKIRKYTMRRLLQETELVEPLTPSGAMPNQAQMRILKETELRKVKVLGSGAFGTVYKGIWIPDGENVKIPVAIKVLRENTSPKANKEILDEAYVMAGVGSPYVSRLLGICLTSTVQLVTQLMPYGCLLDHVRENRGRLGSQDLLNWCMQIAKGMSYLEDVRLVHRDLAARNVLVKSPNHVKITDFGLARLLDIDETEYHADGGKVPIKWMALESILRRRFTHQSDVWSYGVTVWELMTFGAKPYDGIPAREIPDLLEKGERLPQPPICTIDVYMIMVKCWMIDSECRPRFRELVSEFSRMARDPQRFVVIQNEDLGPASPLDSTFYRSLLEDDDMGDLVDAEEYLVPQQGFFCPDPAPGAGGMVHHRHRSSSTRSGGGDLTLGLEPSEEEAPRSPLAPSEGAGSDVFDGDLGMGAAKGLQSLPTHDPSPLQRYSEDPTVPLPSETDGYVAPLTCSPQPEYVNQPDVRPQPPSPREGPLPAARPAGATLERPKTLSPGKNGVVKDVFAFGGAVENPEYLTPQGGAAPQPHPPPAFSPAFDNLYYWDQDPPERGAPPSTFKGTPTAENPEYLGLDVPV
Description: The HER2 kinase enzyme inhibitory activity of a compound of the present invention was evaluated by using a purified human recombinant HER2 kinase (Lys676-Val1255, GST fusion) and a synthetic peptide as a substrate, and detecting the phosphorylation level of the substrate by the HTRF method (homogeneous time resolved fluorescence method). Specifically, 25 ng/well of activated HER2, 200 μM of ATP, 200 ng/well of FLT3 analogous peptide (biotin label, peptide sequence is AGGSSDNEYFYVDF), and test compound (final concentration 0.01 nM to 30 μM) were mixed in kinase reaction buffer (60 mM HEPES, 5 mM MgCl2, 5 mM MnCl2, 3 mM Na3VO4, 1.25 mM DTT, pH 7.5) to prepare 50 μL/well of total reaction volume, and the mixture was reacted for 60 minutes at room temperature. Then, the phosphorylation reaction was stopped and HTRF reaction was carried out by adding 25 μL/well of PBS solution comprising the following components and reacting the mixture for 12 to 16 hours at 4° C. The following components were dissolved in PBS (pH 7.0) to prepare the PBS solution composition: 60 mM EDTA (final concentration 20 mM), 1.2 M KF (final concentration […]), 1 mg/mL BSA (final concentration 333 μg/mL), 6 μg/mL anti-PY20-Cryptate (Cisbio international, France, final concentration 2 μg/mL), and 15 μg/mL Streptavidin labeled with XL665 (Cisbio international, France, final concentration 5 μg/mL).

[2] = test system: HER2 overexpressed gastric cancer cell line NCI-N87; assay: Cytotoxic activity (in vitro), CellTiter-Glo viable cell count; format: cell-based; conditions: Homo sapiens, NCI-N87, 72 h, NCI-N87, cultured for 72 hours
Description: The cytotoxic activity of a compound of the present invention was investigated using a HER2 overexpressed gastric cancer cell line NCI-N87. Specifically, an appropriate amount of cells was seeded into a 96-well plate for cell culture at 50 μL/well, and precultured overnight at 37° C. under 5% —CO2 condition. A solution of a test compound in DMSO with dilution series was diluted with medium, and added to the precultured cells at the volume of 50 μL/well. The mixture was prepared such that the final concentration of DMSO became 0.1%. After the mixture was cultured for 72 hours at 37° C. under 5% —CO2 condition, 100 μL/well of CellTiter-Glo solution (Promega, Madison, Wis.) was added, the luminescence was measured using a luminometer (Wallac ARVO™ SX) 10 minutes later, and the viable cell count was determined.

[3] = test system: HER2 overexpressed gastric cancer cell line; assay: In vivo anti-tumor effect, subcutaneous tumor transplant in nude mouse; conditions: oral, daily except Saturday and Sunday, 2 to 4 weeks, read-out: Tumor growth inhibition ratio (%)
Description: The anti-tumor effect in vivo of a compound of the present invention was evaluated using a HER2 overexpressed gastric cancer cell line. Specifically, a tumor fragment with about 5 mm square was transplanted subcutaneously using a transplantation needle, or an appropriate number of tumor cells was suspended in saline (Otsuka Pharmaceutical Co., Ltd.) and transplanted under the skin of the right axillary region of a nude mouse using a glass syringe equipped with a two-stage needle for subcutaneous injection. After the confirmation of the engraftment of the transplanted tumors, the mice were classified into groups depending on the tumor volume. The test compounds: the Example Compounds 1-1, 1-2, 1-5, 1-8, 1-13, 1-14, 1-15, 1-19, 1-20, 1-22, 2-1, 2-3, and 3-2 were each dissolved or suspended in an appropriate medium and orally administered forcedly to a mouse. The period of administration was varied from 2 weeks to 4 weeks depending on tumor, and the administration was carried out daily with drug holidays of Saturday and Sunday. The major axis (mm) and the minor axis (mm) of a tumor were measured sequentially using an electronic digital vernier caliper, and evaluated by the tumor growth inhibition ratio (GI %) on the judgement day (in principle, the next day of the final administration) using the following calculating formula.
A: Average tumor volume on the judgement day of the group to which a compound was administered (*)
B: Average tumor volume on the judgement day of the untreated control group (*)
*: The tumor volume is calculated by ½×[major axis of tumor]×[minor axis of tumor]^2.

Row | Structure (SMILES) | IC50 [1] | GI50 [2] | inhibition in vivo at 60 mg/kg ([3]; dosage 60 mg/kg) | inhibition in vivo at 30 mg/kg ([3]; dosage 30 mg/kg)
1 | C#CCNC1CCN(Cc2c[nH]c3ncnc(Nc4cccc(C#C)c4)c23)CC1 [Example 3-2, (3-Ethynylphenyl) [5-(4-prop-2-ynylaminopiperidin-1-ylmethyl)-7H-pyrrolo[2,3-d]pyrimidin-4-yl]amine] | < 10 nM | < 20 nM | 91% | 
2 | NC1CCN(Cc2c[nH]c3ncnc(Nc4cccc(Br)c4)c23)CC1 [Example 1-8, [5-(4-Aminopiperidin-1-ylmethyl)-7H-pyrrolo[2,3-d]pyrimidin-4-yl](3-bromophenyl)amine] | < 10 nM | < 20 nM |  | 59%
